Experiments:
mTORC1 = target: T1, mTORC1 (Homo sapiens, UniProt P42345+P62942); assay: mTORC1 inhibition in PC-3 cells, AlphaLISA of p70S6K pT389 levels; assay type: cell-based; details: mTORC1 as measured by inhibition of p70S6K pT389 levels, read-out: mTROC1 IC50
T1 construct: endogenous in cells; host or cells: PC-3 cells
Procedure: mTORC1 inhibition was determined via analysis of phosphorylation levels of Phospho-p70 S6 kinase (p70S6K pT389) and Phospho-S6 Ribosomal Protein (pRPS6 pS240/pS244) with the corresponding AlphaLISA kits (PerkinElmer Alpha SF Ultra™ Multiplex phospho (Thr389)/total p70 S6K Assay Kit (Eu/Tb) and AlphaLISA SF Ultra™ p-Ribosomal Protein S6 (Ser240/244) Assay Kit).
%−activity=100*((Sample−Low control)/(High control−Low control))

FKBP12 = FKBP12 (Homo sapiens, UniProt P62942); assay: SPR assay to determine binding affinity to FKBP12 (direct binding); details: immobilized biotinylated avi-FKBP12, single-cycle kinetics
Sequence of FKBP12 (P62942 whole entry, species assumed): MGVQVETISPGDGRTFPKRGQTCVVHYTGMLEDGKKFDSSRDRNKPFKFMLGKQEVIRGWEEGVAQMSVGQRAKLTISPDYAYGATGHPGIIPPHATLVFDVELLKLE
Procedure: SPR Assay to Determine Binding Affinity to FKBP12.
Biotinylated avi-FKBP12 was immobilized on a streptavidin chip (Cytiva Series S SA) using a Biacore 8K or 8k+ (Cytiva). […] Test compounds described in Table 11 were diluted in DMSO to 100× working concentration. Each test compound was 100-fold diluted in 50 mM HEPES pH 7.5, 150 mM NaCl, 2 mM MgCl2, 1 mM DTT, 0.05% Tween-20 and a serial dilution prepared (9 concentrations, 3-fold dilutions, 0.08-500 nM). […] The compound dilutions were then injected at 100 uL/min for 120 seconds contact time in sequence with increasing concentrations. Dissociation was monitored for 3600 seconds. 50 mM HEPES pH 7.5, 150 mM NaCl, 2 mM MgCl2, 1 mM DTT, 0.05% Tween-20, 1% DMSO was used as running buffer. The single-cycle kinetics data were fit to a 1:1 binding model to measure the association rate ka (1/Ms), the dissociation rate kd (1/s) and the affinity Kd (M).

[1] = target: FKBP12 ternary complex with FRB (Homo sapiens, UniProt P42345+P62942); assay: SPR assay to characterize ternary complex formation with FKBP12 (FRB injected over compound-saturated FKBP12); assay type: binding; details: FRB dilutions with 100 nM test compound over immobilized FKBP12
Procedure: Biotinylated avi-FKBP12 was immobilized on a streptavidin chip (Cytiva Series S SA) using a Biacore 8K or 8k+ (Cytiva). To achieve an immobilization level of 100 RU, 0.3 μg/ml biotinylated avi-FKBP12 were injected for 80 sec at a flow rate of 10 μl/min. Serial dilution of FRB was prepared (12 concentrations, 3-fold dilutions, 0.00011-20 μM) and supplemented with 100 nM of a test compound. A-B-A injection mode was used to ensure saturation immobilized FKBP12 with respective test compound. 100 nM solution of the respective test compound was injected before FRB injection for 120 sec and during dissociation for 420 sec. The FRB dilutions were then injected 120 seconds contact time with increasing concentrations. Rapamycin was used as reference sample. 50 mM HEPES pH 7.5, 150 mM NaCl, 2 mM MgCl2, 1 mM DTT, 0.05% Tween-20, 1% DMSO was used as running buffer at a flow rate of 30 μl/min. The multi-cycle kinetics data were fit to a 1:1 binding model to measure the association rate ka (1/Ms), the dissociation rate kd (1/s) and the affinity Kd (M). In case of fast association and dissociation, steady state affinity analysis following the law of mass action was used to determine the affinity Kd (M).

SMILES | IC50 (mTORC1) | Kd (FKBP12) | Kd [1]
COCCO[C@@H]1C[C@@H]2CC[C@@H](C)[C@@](O)(O2)C(=O)C(=O)N2CCCC[C@H]2C(=O)O[C@H]([C@H](C)C[C@@H]2CC[C@@H](OCCO)[C@H](OC)C2)CC(=O)[C@H](C)/C=C(\C)[C@@H](O)[C@@H](OC)C(=O)[C@H](C)C[C@H](C)/C=C/C=C/C=C/1C [Compound 40, (1R,9S,12S,15R,16E,18R,19R,21R,23S,24E,26E,28E,30R,32S,35R)-1,18-dihydroxy-12-[(1R)-2-[(1S,3R,4R)-4-(2-hydroxyethoxy)-3-methoxy-cyclohexyl]-1-methyl-ethyl]-19-methoxy-30-(2-methoxyethoxy)-15,17,21,23,29,35-hexamethyl-11,36-dioxa-4-azatricyclo[30.3.1.0^4,9]hexatriaconta-16,24,26,28-tetraene-2,3,10,14,20-pentone] | > 1.5 nM | > 1 nM | 500 to 1100 nM
COCCO[C@H]1C[C@@H]2CC[C@@H](C)[C@@](O)(O2)C(=O)C(=O)N2CCCC[C@H]2C(=O)O[C@H]([C@H](C)C[C@@H]2CC[C@@H](OCCCO)[C@H](OC)C2)CC(=O)[C@H](C)/C=C(\C)[C@@H](O)[C@@H](OC)C(=O)[C@H](C)C[C@H](C)/C=C/C=C/C=C/1C [Compound 427, (1R,9S,12S,15R,16E,18R,19R,21R,23S,24E,26E,28E,30S,32S,35R)-1,18-dihydroxy-12-[(1R)-2-[(1S,3R,4R)-4-(3-hydroxypropoxy)-3-methoxy-cyclohexyl]-1-methyl-ethyl]-19-methoxy-30-(2-methoxyethoxy)-15,17,21,23,29,35-hexamethyl-11,36-dioxa-4-azatricyclo[30.3.1.04,9]hexatriaconta-16,24,26,28-tetraene-2,3,10,14,20-pentone] | < 0.8 nM | 0.3 to 1 nM | < 500 nM
COCCO[C@@H]1C[C@@H]2CC[C@@H](C)[C@@](O)(O2)C(=O)C(=O)N2CCCC[C@H]2C(=O)O[C@H]([C@H](C)C[C@@H]2CC[C@@H](O)[C@H](OC)C2)CC(=O)[C@H](C)/C=C(\C)[C@@H](O)[C@@H](OC)C(=O)[C@H](C)C[C@H](C)/C=C/C=C/C=C/1C [Compound 130, (1R,9S,12S,15R,16E,18R,19R,21R,23S,24E,26E,28E,30R,32S,35R)-1,18-dihydroxy-12-[(1R)-2-[(1S,3R,4R)-4-hydroxy-3-methoxy-cyclohexyl]-1-methyl-ethyl]-19-methoxy-30-(2-methoxyethoxy)-15,17,21,23,29,35-hexamethyl-11,36-dioxa-4-azatricyclo[30.3.1.04,9]hexatriaconta-16,24,26,28-tetraene-2,3,10,14,20-pentone] | 0.8 to 1.5 nM | 0.3 to 1 nM | 500 to 1100 nM
COCCO[C@H]1C[C@@H]2CC[C@@H](C)[C@@](O)(O2)C(=O)C(=O)N2CCCC[C@H]2C(=O)O[C@H]([C@H](C)C[C@@H]2CC[C@@H](OCCO)[C@H](OC)C2)CC(=O)[C@H](C)/C=C(\C)[C@@H](O)[C@@H](OC)C(=O)[C@H](C)C[C@H](C)/C=C/C=C/C=C/1C [Compound 439, (1R,9S,12S,15R,16E,18R,19R,21R,23S,24E,26E,28E,30S,32S,35R)-1,18-dihydroxy-12-[(1R)-2-[(1S,3R,4R)-4-(2-hydroxyethoxy)-3-methoxy-cyclohexyl]-1-methyl-ethyl]-19-methoxy-30-(2-methoxyethoxy)-15,17,21,23,29,35-hexamethyl-11,36-dioxa-4-azatricyclo[30.3.1.0^4,9]hexatriaconta-16,24,26,28-tetraene-2,3,10,14,20-pentone] | < 0.8 nM | 0.3 to 1 nM | < 500 nM
CO[C@@H]1C[C@H](C[C@@H](C)[C@@H]2CC(=O)[C@H](C)/C=C(\C)[C@@H](O)[C@@H](OC)C(=O)[C@H](C)C[C@H](C)/C=C/C=C/C=C(\C)[C@@H](OCCCCO)C[C@@H]3CC[C@@H](C)[C@@](O)(O3)C(=O)C(=O)N3CCCC[C@H]3C(=O)O2)CC[C@H]1OCCCN1CCOCC1 [Compound 426, (1R,9S,12S,15R,16E,18R,19R,21R,23S,24E,26E,28E,30S,32S,35R)-1,18-dihydroxy-30-(4-hydroxybutoxy)-19-methoxy-12-[(1R)-2-[(1S,3R,4R)-3-methoxy-4-(3-morpholinopropoxy)cyclohexyl]-1-methyl-ethyl]-15,17,21,23,29,35-hexamethyl-11,36-dioxa-4-azatricyclo[30.3.1.0^4,9]hexatriaconta-16,24,26,28-tetraene-2,3,10,14,20-pentone] | 0.8 to 1.5 nM | < 0.3 nM | 500 to 1100 nM
CO[C@@H]1C[C@H](C[C@@H](C)[C@@H]2CC(=O)[C@H](C)/C=C(\C)[C@@H](O)[C@@H](OC)C(=O)[C@H](C)C[C@H](C)/C=C/C=C/C=C(\C)[C@H](OCC3COC3)C[C@@H]3CC[C@@H](C)[C@@](O)(O3)C(=O)C(=O)N3CCCC[C@H]3C(=O)O2)CC[C@H]1OCCO [Compound 75, (1R,9S,12S,15R,16E,18R,19R,21R,23S,24E,26E,28E,30R,32S,35R)-1,18-dihydroxy-12-[(1R)-2-[(1S,3R,4R)-4-(2-hydroxyethoxy)-3-methoxy-cyclohexyl]-1-methyl-ethyl]-19-methoxy-15,17,21,23,29,35-hexamethyl-30-(oxetan-3-ylmethoxy)-11,36-dioxa-4-azatricyclo[30.3.1.04,9]hexatriaconta-16,24,26,28-tetraene-2,3,10,14,20-pentone] | > 1.5 nM | 0.3 to 1 nM | > 1100 nM
CO[C@@H]1C[C@H](C[C@@H](C)[C@@H]2CC(=O)[C@H](C)/C=C(\C)[C@@H](O)[C@@H](OC)C(=O)[C@H](C)C[C@H](C)/C=C/C=C/C=C(\C)[C@@H](OCCc3ccccc3)C[C@@H]3CC[C@@H](C)[C@@](O)(O3)C(=O)C(=O)N3CCCC[C@H]3C(=O)O2)CC[C@H]1O [Compound 520, (1R,9S,12S,15R,16E,18R,19R,21R,23S,24E,26E,28E,30S,32S,35R)-1,18-dihydroxy-12-[(1R)-2-[(1S,3R,4R)-4-hydroxy-3-methoxy-cyclohexyl]-1-methyl-ethyl]-19-methoxy-15,17,21,23,29,35-hexamethyl-30-(2-phenylethoxy)-11,36-dioxa-4-azatricyclo[30.3.1.04,9]hexatriaconta-16,24,26,28-tetraene-2,3,10,14,20-pentone] | < 0.8 nM | > 1 nM | < 500 nM
COCCO[C@@H]1C[C@@H]2CC[C@@H](C)[C@@](O)(O2)C(=O)C(=O)N2CCCC[C@H]2C(=O)O[C@H]([C@H](C)C[C@@H]2CC[C@@H](OCCCN3CCN(C)CC3)[C@H](OC)C2)CC(=O)[C@H](C)/C=C(\C)[C@@H](O)[C@@H](OC)C(=O)[C@H](C)C[C@H](C)/C=C/C=C/C=C/1C [Compound 32, (1R,9S,12S,15R,16E,18R,19R,21R,23S,24E,26E,28E,30R,32S,35R)-1,18-dihydroxy-19-methoxy-30-(2-methoxyethoxy)-12-[(1R)-2-[(1S,3R,4R)-3-methoxy-4-[3-(4-methylpiperazin-1-yl)propoxy]cyclohexyl]-1-methyl-ethyl]-15,17,21,23,29,35-hexamethyl-11,36-dioxa-4-azatricyclo[30.3.1.04,9]hexatriaconta-16,24,26,28-tetraene-2,3,10,14,20-pentone] | > 1.5 nM | 0.3 to 1 nM | > 1100 nM
CO[C@@H]1C[C@H](C[C@@H](C)[C@@H]2CC(=O)[C@H](C)/C=C(\C)[C@@H](O)[C@@H](OC)C(=O)[C@H](C)C[C@H](C)/C=C/C=C/C=C(\C)[C@@H](OCCOCCO)C[C@@H]3CC[C@@H](C)[C@@](O)(O3)C(=O)C(=O)N3CCCC[C@H]3C(=O)O2)CC[C@H]1O [Compound 524, (1R,9S,12S,15R,16E,18R,19R,21R,23S,24E,26E,28E,30S,32S,35R)-1,18-dihydroxy-30-[2-(2-hydroxyethoxy)ethoxy]-12-[(1R)-2-[(1S,3R,4R)-4-hydroxy-3-methoxy-cyclohexyl]-1-methyl-ethyl]-19-methoxy-15,17,21,23,29,35-hexamethyl-11,36-dioxa-4-azatricyclo[30.3.1.04,9]hexatriaconta-16,24,26,28-tetraene-2,3,10,14,20-pentone] | < 0.8 nM | < 0.3 nM | 500 to 1100 nM

Source: patent US20230331737A1, “MTORC1 MODULATORS AND USES THEREOF” (Aeovian Pharmaceuticals, Inc., priority 2020, published 2023)
